# Test results published in patent publication US12282026B2, “Method for screening personalized intestinal environment-improving material and composition therefor” (HEM PHARMA INC., priority 2019, dated 2025).
# Test system: feces samples
# Format: cell-based, human
substance,measurement,value
Clostridium butyricum [CB],change in amount of butyrate,increases significantly
